Laboratory results from patent publication EP4722212A1, “NOVEL COMPOUND FOR INHIBITING PROTEIN KINASES AND PHARMACEUTICAL COMPOSITION COMPRISING SAME” (Magicbullettherapeutics Co., Ltd., priority 2023, dated 2024).
Like-named read-outs stand apart in the source and are kept apart here.

How the values were obtained:
Assay in all cases: Kinase panel
Assay type in all cases: biochemical
PHKG1 = PHKG1 (Homo sapiens, UniProt Q16816); conditions: read-out: residual enzyme activity
Procedure, shortened: (§1)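 In this biochemical panel, each kinase was exposed to test compound at 1 µM and its leftover catalytic activity expressed as residual activity. Selection required at least 60% inhibition.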

TSSK2 = TSSK2 (Homo sapiens, UniProt Q96PF2); conditions: TSSK2, 1 µM; read-out: residual enzyme activity
Chain of TSSK2 (Q96PF2 whole entry, species assumed): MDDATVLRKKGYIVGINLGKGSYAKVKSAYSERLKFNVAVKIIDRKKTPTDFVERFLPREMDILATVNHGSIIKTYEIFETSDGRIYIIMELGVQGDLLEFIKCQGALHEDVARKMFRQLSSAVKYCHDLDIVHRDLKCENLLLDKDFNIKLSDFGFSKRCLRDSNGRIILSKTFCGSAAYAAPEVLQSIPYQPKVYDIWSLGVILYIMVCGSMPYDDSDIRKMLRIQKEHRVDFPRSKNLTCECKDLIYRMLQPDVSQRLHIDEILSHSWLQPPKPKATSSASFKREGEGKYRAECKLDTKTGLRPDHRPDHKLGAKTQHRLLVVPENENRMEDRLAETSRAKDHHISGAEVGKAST
Procedure, shortened: as §1

EPHA6 = EPHA6 (Homo sapiens, UniProt Q9UF33); conditions: EPHA6, 1 µM; read-out: residual enzyme activity
Chain of EPHA6 (Q9UF33 23-1036, species assumed): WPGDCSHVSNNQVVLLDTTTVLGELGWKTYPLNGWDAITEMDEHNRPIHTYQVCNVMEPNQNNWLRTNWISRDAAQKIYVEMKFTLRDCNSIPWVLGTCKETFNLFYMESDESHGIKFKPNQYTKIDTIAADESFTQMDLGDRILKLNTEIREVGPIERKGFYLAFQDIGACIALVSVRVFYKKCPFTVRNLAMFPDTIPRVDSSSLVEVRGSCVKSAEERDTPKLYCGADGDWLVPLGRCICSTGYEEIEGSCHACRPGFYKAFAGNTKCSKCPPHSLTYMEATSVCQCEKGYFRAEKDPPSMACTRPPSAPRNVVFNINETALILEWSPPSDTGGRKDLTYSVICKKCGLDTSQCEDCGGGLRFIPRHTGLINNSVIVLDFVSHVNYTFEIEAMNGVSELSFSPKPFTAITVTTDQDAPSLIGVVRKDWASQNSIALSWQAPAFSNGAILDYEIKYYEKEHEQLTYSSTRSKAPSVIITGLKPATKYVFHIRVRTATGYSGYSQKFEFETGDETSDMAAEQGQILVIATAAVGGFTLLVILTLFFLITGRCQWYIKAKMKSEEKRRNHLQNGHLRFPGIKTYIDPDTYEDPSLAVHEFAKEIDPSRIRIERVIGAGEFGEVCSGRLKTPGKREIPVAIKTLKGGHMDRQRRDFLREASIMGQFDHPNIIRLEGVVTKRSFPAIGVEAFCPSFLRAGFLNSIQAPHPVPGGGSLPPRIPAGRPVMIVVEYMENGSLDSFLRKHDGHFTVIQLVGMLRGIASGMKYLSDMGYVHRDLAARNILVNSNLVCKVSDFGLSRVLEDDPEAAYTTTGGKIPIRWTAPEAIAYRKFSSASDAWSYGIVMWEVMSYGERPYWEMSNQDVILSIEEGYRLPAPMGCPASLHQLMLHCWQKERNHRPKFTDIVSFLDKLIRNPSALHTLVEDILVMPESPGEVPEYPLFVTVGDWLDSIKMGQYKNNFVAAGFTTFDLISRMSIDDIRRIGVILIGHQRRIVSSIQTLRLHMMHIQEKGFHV
Procedure, shortened: as §1

MYO3B = MYO3B (Homo sapiens, UniProt Q8WXR4); conditions: read-out: residual enzyme activity
Procedure, shortened: as §1

MST1/STK4 = MST1/STK4 (Homo sapiens, UniProt Q13043); conditions: MST1/STK4, 1 µM; read-out: residual enzyme activity
Procedure, shortened: as §1

CK1A1 = CK1A1 (Homo sapiens, UniProt P48729); conditions: read-out: residual enzyme activity
Procedure, shortened: as §1

IRR/INSRR = IRR/INSRR (Homo sapiens, UniProt P14616); conditions: read-out: residual enzyme activity
Procedure, shortened: as §1

GLK/MAP4K3 = GLK/MAP4K3 (Homo sapiens, UniProt Q8IVH8); conditions: GLK/MAP4K3, 1 µM; read-out: residual enzyme activity
Procedure, shortened: as §1

ERN1/IRE1 = ERN1/IRE1 (Homo sapiens, UniProt O75460); conditions: ERN1/IRE1, 1 µM; read-out: residual enzyme activity
Procedure, shortened: as §1

LCK = LCK (Homo sapiens, UniProt P06239); conditions: read-out: residual enzyme activity
Procedure, shortened: as §1

MEKK2 = MEKK2 (Homo sapiens, UniProt Q9Y2U5); conditions: MEKK2, 1 µM; read-out: residual enzyme activity
Procedure, shortened: as §1

CAMKK2 = CAMKK2 (Homo sapiens, UniProt Q96RR4); conditions: CAMKK2, 1 µM; read-out: residual enzyme activity
Procedure, shortened: as §1

TEC = TEC (Homo sapiens, UniProt P42680); conditions: read-out: residual enzyme activity
Procedure, shortened: as §1

LOK/STK10 = LOK/STK10 (Homo sapiens, UniProt O94804); conditions: LOK/STK10, 1 µM; read-out: residual enzyme activity
Chain of LOK/STK10 (O94804 whole entry): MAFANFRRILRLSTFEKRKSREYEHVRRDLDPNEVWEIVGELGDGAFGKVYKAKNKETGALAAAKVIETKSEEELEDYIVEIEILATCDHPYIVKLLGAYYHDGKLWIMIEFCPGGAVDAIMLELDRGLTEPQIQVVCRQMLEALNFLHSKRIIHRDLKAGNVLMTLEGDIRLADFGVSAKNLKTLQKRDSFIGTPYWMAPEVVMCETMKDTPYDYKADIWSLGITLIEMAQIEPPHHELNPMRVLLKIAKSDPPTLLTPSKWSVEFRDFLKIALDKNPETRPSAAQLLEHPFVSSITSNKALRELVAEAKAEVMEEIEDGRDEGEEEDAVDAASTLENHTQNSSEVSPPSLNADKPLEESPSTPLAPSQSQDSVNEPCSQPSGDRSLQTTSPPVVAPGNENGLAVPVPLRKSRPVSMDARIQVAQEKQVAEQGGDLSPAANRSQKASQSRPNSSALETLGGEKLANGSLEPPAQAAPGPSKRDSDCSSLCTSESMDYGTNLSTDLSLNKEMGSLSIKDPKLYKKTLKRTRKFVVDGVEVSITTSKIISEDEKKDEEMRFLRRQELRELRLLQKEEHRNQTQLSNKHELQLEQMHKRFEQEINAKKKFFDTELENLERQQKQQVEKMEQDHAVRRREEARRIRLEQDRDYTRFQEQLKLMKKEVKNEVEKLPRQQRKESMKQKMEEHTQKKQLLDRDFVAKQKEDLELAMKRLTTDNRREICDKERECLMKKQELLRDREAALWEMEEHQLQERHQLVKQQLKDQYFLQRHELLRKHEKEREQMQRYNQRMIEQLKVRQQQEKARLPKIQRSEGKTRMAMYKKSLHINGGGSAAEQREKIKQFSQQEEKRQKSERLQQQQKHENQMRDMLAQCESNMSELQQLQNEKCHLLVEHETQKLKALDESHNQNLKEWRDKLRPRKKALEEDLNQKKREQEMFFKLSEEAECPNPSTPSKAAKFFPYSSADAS
Procedure, shortened: as §1

MNK2 = MNK2 (Homo sapiens, UniProt Q9HBH9); conditions: MNK2, 1 µM; read-out: residual enzyme activity
Chain of MNK2 (Q9HBH9 whole entry, species assumed): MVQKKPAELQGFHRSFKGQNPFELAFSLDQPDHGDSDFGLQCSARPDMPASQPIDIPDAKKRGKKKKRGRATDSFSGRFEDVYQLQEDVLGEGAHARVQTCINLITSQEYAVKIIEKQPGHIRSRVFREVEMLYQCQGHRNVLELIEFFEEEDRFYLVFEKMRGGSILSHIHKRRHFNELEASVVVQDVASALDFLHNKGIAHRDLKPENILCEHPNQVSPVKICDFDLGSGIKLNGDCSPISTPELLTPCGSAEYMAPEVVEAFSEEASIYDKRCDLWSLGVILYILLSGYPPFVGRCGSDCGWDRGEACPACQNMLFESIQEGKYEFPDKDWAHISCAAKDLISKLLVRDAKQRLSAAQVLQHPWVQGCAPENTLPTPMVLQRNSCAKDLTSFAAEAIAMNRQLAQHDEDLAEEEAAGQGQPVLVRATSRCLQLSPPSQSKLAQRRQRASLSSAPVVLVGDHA
Procedure, shortened: as §1

FLT4/VEGFR3 = FLT4/VEGFR3 (Homo sapiens, UniProt P35916); conditions: FLT4/VEGFR3, 1 µM; read-out: residual enzyme activity
Procedure, shortened: as §1

FGFR1 = FGFR1 (Homo sapiens, UniProt P11362); conditions: FGFR1, 1 µM; read-out: residual enzyme activity
Procedure, shortened: as §1

FES/FPS = FES/FPS (Homo sapiens, UniProt P07332); conditions: read-out: residual enzyme activity
Procedure, shortened: as §1

CAMK2G = CAMK2G (Homo sapiens, UniProt Q13555); conditions: read-out: residual enzyme activity
Chain of CAMK2G (Q13555 whole entry, species assumed): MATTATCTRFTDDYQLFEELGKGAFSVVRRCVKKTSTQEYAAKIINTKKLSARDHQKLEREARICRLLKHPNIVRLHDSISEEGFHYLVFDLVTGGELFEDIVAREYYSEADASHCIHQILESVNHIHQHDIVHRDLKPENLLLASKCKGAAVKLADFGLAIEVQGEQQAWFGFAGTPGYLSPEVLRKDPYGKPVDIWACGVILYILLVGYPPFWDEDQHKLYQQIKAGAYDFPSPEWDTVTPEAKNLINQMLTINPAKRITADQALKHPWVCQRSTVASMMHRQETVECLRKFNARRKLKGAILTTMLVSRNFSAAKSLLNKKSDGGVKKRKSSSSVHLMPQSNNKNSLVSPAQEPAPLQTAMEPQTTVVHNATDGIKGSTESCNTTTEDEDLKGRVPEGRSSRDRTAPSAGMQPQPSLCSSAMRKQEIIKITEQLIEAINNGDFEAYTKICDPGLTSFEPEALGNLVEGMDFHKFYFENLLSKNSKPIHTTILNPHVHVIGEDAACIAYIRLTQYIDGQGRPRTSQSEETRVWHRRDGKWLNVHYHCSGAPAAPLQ
Procedure, shortened: as §1

RET = RET (Homo sapiens, UniProt P07949); conditions: read-out: residual enzyme activity
Procedure, shortened: as §1

TTBK2 = TTBK2 (Homo sapiens, UniProt Q6IQ55); conditions: TTBK2, 1 µM; read-out: residual enzyme activity
Procedure, shortened: as §1

ACK1 = target: T1, ACK1 (Homo sapiens, UniProt Q07912); conditions: ACK1, 1 µM; read-out: residual enzyme activity
T1 construct: purchased Reaction Biology (RBC)
Procedure, shortened: as §1

GCK/MAP4K2 = GCK/MAP4K2 (Homo sapiens, UniProt Q12851); conditions: GCK/MAP4K2, 1 µM; read-out: residual enzyme activity
Procedure, shortened: as §1

PAK3 = PAK3 (Homo sapiens, UniProt O75914); conditions: PAK3, 1 µM; read-out: residual enzyme activity
Procedure, shortened: as §1

CDK2/CYCLIN A = CDK2/CYCLIN A (Homo sapiens, UniProt P24941); conditions: read-out: residual enzyme activity
Procedure, shortened: as §1

CDK16/CYCLIN Y (PCTAIRE) = CDK16/CYCLIN Y (PCTAIRE) (Homo sapiens, UniProt Q00536); conditions: read-out: residual enzyme activity
Chain of CDK16/CYCLIN Y (PCTAIRE) (Q00536 whole entry, species assumed): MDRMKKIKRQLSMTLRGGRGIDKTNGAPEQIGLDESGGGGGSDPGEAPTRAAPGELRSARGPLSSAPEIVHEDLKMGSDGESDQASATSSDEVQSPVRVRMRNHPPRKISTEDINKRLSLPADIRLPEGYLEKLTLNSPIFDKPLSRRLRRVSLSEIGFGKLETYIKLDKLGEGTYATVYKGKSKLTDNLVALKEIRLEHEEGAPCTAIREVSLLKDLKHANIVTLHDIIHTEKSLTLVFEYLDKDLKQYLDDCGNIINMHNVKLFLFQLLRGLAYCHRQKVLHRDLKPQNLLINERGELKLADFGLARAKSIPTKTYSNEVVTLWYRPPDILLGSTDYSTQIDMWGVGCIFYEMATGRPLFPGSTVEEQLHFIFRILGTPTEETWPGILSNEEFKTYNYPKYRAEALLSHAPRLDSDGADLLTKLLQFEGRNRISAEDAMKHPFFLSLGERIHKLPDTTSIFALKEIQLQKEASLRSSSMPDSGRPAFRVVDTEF
Chain of CDK16/CYCLIN Y (PCTAIRE) (Q8ND76 whole entry partner, species assumed): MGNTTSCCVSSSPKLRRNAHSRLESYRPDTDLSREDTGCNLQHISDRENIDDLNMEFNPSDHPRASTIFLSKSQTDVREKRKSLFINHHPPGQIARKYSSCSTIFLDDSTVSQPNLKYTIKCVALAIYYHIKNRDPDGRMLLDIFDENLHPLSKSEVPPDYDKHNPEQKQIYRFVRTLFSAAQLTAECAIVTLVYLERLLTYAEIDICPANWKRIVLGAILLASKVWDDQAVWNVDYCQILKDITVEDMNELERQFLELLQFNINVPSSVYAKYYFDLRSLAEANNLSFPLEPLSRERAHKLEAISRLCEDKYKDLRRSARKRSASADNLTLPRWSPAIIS
Procedure, shortened: as §1

MEKK3 = MEKK3 (Homo sapiens, UniProt Q99759); conditions: MEKK3, 1 µM; read-out: residual enzyme activity
Procedure, shortened: as §1

YSK4/MAP3K19 = YSK4/MAP3K19 (Homo sapiens, UniProt Q56UN5); conditions: YSK4/MAP3K19, 1 µM; read-out: residual enzyme activity
Procedure, shortened: as §1

ABL2/ARG = ABL2/ARG (Homo sapiens, UniProt P42684); conditions: read-out: residual enzyme activity
Procedure, shortened: as §1

CK1G2 = CK1G2 (Homo sapiens, UniProt P78368); conditions: read-out: residual enzyme activity
Chain of CK1G2 (P78368 whole entry, species assumed): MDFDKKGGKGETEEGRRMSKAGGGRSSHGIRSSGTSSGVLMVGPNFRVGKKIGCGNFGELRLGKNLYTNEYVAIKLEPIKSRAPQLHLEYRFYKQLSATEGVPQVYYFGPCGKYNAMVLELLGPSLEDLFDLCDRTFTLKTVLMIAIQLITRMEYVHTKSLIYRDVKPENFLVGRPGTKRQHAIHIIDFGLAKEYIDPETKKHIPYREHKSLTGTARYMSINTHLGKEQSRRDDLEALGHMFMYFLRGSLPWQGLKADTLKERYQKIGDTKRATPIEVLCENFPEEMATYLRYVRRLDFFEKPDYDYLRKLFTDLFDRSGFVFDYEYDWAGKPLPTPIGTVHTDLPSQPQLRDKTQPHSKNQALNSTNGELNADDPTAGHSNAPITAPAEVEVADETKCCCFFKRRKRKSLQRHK
Procedure, shortened: as §1

MASTL = MASTL (Homo sapiens, UniProt Q96GX5); conditions: read-out: residual enzyme activity
Procedure, shortened: as §1

TESK2 = TESK2 (Homo sapiens, UniProt Q96S53); conditions: TESK2, 1 µM; read-out: residual enzyme activity
Procedure, shortened: as §1

STK25/YSK1 = STK25/YSK1 (Homo sapiens, UniProt O00506); conditions: STK25/YSK1, 1 µM; read-out: residual enzyme activity
Procedure, shortened: as §1

Chain of PHKG1 (Q16816 whole entry, species assumed): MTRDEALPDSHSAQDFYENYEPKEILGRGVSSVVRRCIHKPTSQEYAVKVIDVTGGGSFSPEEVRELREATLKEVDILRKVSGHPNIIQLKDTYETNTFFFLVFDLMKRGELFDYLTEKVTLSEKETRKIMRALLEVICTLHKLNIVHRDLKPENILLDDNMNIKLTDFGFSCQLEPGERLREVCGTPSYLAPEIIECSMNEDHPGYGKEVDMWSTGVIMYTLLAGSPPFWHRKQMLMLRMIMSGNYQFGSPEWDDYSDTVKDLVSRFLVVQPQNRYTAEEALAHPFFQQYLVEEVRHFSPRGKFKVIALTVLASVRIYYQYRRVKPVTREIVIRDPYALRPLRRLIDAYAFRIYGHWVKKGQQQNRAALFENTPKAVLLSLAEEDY

SMILES	remaining activity at 1 µM (TSSK2)	remaining activity at 1 µM (EPHA6)	remaining activity at 1 µM (MST1/STK4)	remaining activity at 1 µM (IRR/INSRR)	remaining activity at 1 µM (GLK/MAP4K3)	remaining activity at 1 µM (ERN1/IRE1)	remaining activity at 1 µM (LCK)	remaining activity at 1 µM (MEKK2)	remaining activity at 1 µM (CAMKK2)	remaining activity at 1 µM (TEC)	remaining activity at 1 µM (LOK/STK10)	remaining activity at 1 µM (MNK2)	remaining activity at 1 µM (FLT4/VEGFR3)	remaining activity at 1 µM (FGFR1)	remaining activity at 1 µM (FES/FPS)	remaining activity at 1 µM (RET)	remaining activity at 1 µM (TTBK2)	remaining activity at 1 µM (ACK1)	remaining activity at 1 µM (GCK/MAP4K2)	remaining activity at 1 µM (PAK3)	further results
Cc1cn(-c2cc(C(=O)Nc3ccc(C)c(N4Cc5cnc(NC6CC6)nc5C5(CC5)C4=O)c3)cc(C(F)(F)F)c2)cn1 [Compound 8, N-(3-(2'-(cyclopropylamino)-7'-oxo-5'H-spiro[cyclopropane-1,8'-pyrido[4,3-d]pyrimidine]-6'(7'H)-yl)-4-methylphenyl)-3-(4-methyl-1H-imidazol-1-yl)-5-(trifluoromethyl)benzamide]	> 40%	≤ 40%	> 40%	> 40%	≤ 40%	> 40%	≤ 40%	≤ 40%	> 40%	≤ 40%	≤ 40%	> 40%	≤ 40%	≤ 40%	≤ 40%	≤ 40%	> 40%	≤ 40%	≤ 40%	> 40%	remaining activity at 1 µM (PHKG1; PHKG1, 1 µM): > 40%; remaining activity at 1 µM (MYO3B; MYO3B): > 40%; remaining activity at 1 µM (CK1A1; CK1A1, 1 µM): > 40%; remaining activity at 1 µM (CAMK2G; CAMK2G): > 40%; remaining activity at 1 µM (CDK2/CYCLIN A): > 40%; remaining activity at 1 µM (CDK16/CYCLIN Y (PCTAIRE)): > 40%; remaining activity at 1 µM (MEKK3): ≤ 40%; remaining activity at 1 µM (YSK4/MAP3K19): ≤ 40%; remaining activity at 1 µM (ABL2/ARG): ≤ 40%; remaining activity at 1 µM (CK1G2; CK1G2, 1 µM): > 40%; remaining activity at 1 µM (MASTL): > 40%; remaining activity at 1 µM (TESK2): ≤ 40%; remaining activity at 1 µM (STK25/YSK1): > 40%
Cc1ccc(Nc2ncc3c(n2)C2(CC2)C(=O)N(c2cc(NC(=O)c4cccc(C(F)(F)F)c4)ccc2C)C3)cn1 [Compound 51, N-(4-methyl-3-(2'-((6-methylpyridin-3-yl)amino)-7'-oxo-5'H-spiro[cyclopropane-1,8'-pyrido[4,3-d]pyrimidine]-6'(7'H)-yl)phenyl)-3-(trifluoromethyl)benzamide]	> 40%	≤ 40%	> 40%	> 40%	≤ 40%	> 40%	≤ 40%	≤ 40%	> 40%	≤ 40%	≤ 40%	> 40%	≤ 40%	≤ 40%	≤ 40%	≤ 40%	> 40%	≤ 40%	≤ 40%	> 40%	remaining activity at 1 µM (PHKG1; PHKgl, 1 µM): > 40%; remaining activity at 1 µM (MYO3B; MYO3b): > 40%; remaining activity at 1 µM (CK1A1; CKlal, 1 µM): > 40%; remaining activity at 1 µM (CAMK2G; CAMK2g): > 40%; remaining activity at 1 µM (CDK2/CYCLIN A): > 40%; remaining activity at 1 µM (CDK16/CYCLIN Y (PCTAIRE)): > 40%; remaining activity at 1 µM (MEKK3): ≤ 40%; remaining activity at 1 µM (YSK4/MAP3K19): ≤ 40%; remaining activity at 1 µM (ABL2/ARG): ≤ 40%; remaining activity at 1 µM (CK1G2; CKlg2, 1 µM): > 40%; remaining activity at 1 µM (MASTL): > 40%; remaining activity at 1 µM (TESK2): ≤ 40%; remaining activity at 1 µM (STK25/YSK1): > 40%
